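Exposure lasted 48 hours, with cells grown in 96-well plates and compounds tested at five concentrations. GI50 = concentration required for 50% inhibition of growth.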 Active and inactive are the calls of the source. Rule as the data show it: active = GI50 up to about 1.1 µM and inactive = higher.
Legend:
Test in all cases: inhibition of tumour cell growth, NCI panel, 48 h
[1] = test system: 786-0
[2] = test system: A498
[3] = test system: BT-549
[4] = test system: HCT-116
[5] = test system: HOP-92
[6] = test system: KM12
[7] = test system: M14
[8] = test system: NCI-H460
[9] = test system: NCI/ADR-RES
[10] = test system: OVCAR-3
[11] = test system: OVCAR-5
[12] = test system: RPMI-8226
[13] = test system: RXF 393
[14] = test system: SW-620
[15] = test system: TK-10
[16] = test system: UO-31
[17] = test system: SR

Measured: GI50

ClC1=NN=C(c2c[nH]c3ccccc23)CC1NCc1ccccc1 (configuration not stated)
inactive: [1] > 100 µM | [2] > 100 µM | [3] > 100 µM | [4] > 100 µM | [5] > 100 µM | [6] > 100 µM | [7] > 100 µM | [8] > 100 µM | [9] > 100 µM | [10] > 100 µM | [11] > 100 µM | [12] > 100 µM | [13] > 100 µM | [14] > 100 µM | [15] > 100 µM | [16] > 100 µM

CN1Cc2cc(O)c(O)cc2C(O)C1 (configuration not stated)
inactive: [3] > 100 µM | [4] > 100 µM | [5] > 100 µM | [6] > 100 µM | [7] > 100 µM | [8] > 100 µM | [9] > 100 µM | [10] > 100 µM | [11] > 100 µM | [12] > 100 µM | [13] > 100 µM | [17] 1.19 µM | [14] > 100 µM | [15] > 100 µM | [16] 83 µM

COc1ccc([C@H]2CC(=O)C[C@H](c3ccc(OC)cc3OC)C23C(=O)c2ccccc2C3=O)c(OC)c1
inactive: [1] > 100 µM | [3] > 100 µM | [4] > 100 µM | [5] 27.3 µM | [6] > 100 µM | [7] > 100 µM | [8] > 100 µM | [9] > 100 µM | [10] > 100 µM | [11] > 100 µM | [12] > 100 µM | [13] > 100 µM | [17] > 100 µM | [14] > 100 µM | [15] > 100 µM | [16] > 100 µM

CSc1ccc(-c2cc(-c3nc4ccccc4[nH]3)nc3[nH]c(-c4nc5ccccc5[nH]4)cc(=O)c23)cc1
inactive: [1] > 100 µM | [3] 85.3 µM | [4] 39.4 µM | [5] > 100 µM | [6] 60.3 µM | [7] 82.4 µM | [8] 52.1 µM | [9] > 100 µM | [10] > 100 µM | [11] > 100 µM | [12] 41.9 µM | [13] 52.5 µM | [17] > 100 µM | [15] > 100 µM | [16] > 100 µM

Cc1ccc(-n2c(=O)c3nn4c(=O)n(-c5ccc(C)cc5)c(=O)c4nn3c2=O)cc1
inactive: [1] > 100 µM | [3] > 100 µM | [4] > 100 µM | [5] 45.6 µM | [6] > 100 µM | [7] > 100 µM | [8] > 100 µM | [9] > 100 µM | [10] > 100 µM | [11] > 100 µM | [12] > 100 µM | [13] > 100 µM | [17] > 100 µM | [14] > 100 µM | [15] > 100 µM | [16] > 100 µM

Cc1ccc2c(c1C)CC1(Cc3c(ccc4c3CCC4)C1=O)C2=O (configuration not stated)
inactive: [1] > 100 µM | [2] > 100 µM | [3] > 100 µM | [4] > 100 µM | [5] > 100 µM | [6] > 100 µM | [7] 52.4 µM | [8] > 100 µM | [9] > 100 µM | [10] 65.9 µM | [11] > 100 µM | [12] > 100 µM | [13] > 100 µM | [14] > 100 µM | [15] > 100 µM | [16] > 100 µM

COc1ccc(/N=C2/SC(=N/N=c3\sc4ccccc4n3C)S/C2=N/c2ccc(OC)cc2)cc1
inactive: [1] 47.3 µM | [3] 67.9 µM | [4] 29.8 µM | [5] 89.1 µM | [6] > 100 µM | [7] > 100 µM | [8] > 100 µM | [9] > 100 µM | [10] > 100 µM | [11] > 100 µM | [12] > 100 µM | [13] 34 µM | [17] > 100 µM | [14] > 100 µM | [15] > 100 µM | [16] > 100 µM

Oc1cc(-c2ccc(F)cc2)nc2ncccc12
inactive: [2] 87.3 µM | [3] > 100 µM | [5] 45.3 µM | [6] 31.9 µM | [7] 61.5 µM | [9] 32.9 µM | [11] 98.9 µM | [12] 37.1 µM | [14] 38.2 µM | [15] > 100 µM | [16] 34.4 µM

CC(=O)OCCCC(NC(=O)OC(C)(C)C)C(=O)NC(CCCOC(C)=O)C(=O)NC(Cc1ccc([N+](=O)[O-])cc1)C(=O)NCC(=O)OCc1ccccc1 (configuration not stated)
inactive: [1] 18 µM | [3] 18.5 µM | [4] 18.1 µM | [5] 18.4 µM | [6] 15.6 µM | [7] 12.9 µM | [8] 15.6 µM | [9] 19.2 µM | [10] 16.5 µM | [11] 15.8 µM | [12] 19.9 µM | [13] 13.1 µM | [17] 15.6 µM | [14] 16.9 µM | [15] 18.5 µM | [16] 16.1 µM

CN(CC(=O)N1CC(CCl)c2ccc([N+](=O)[O-])cc21)CC(=O)N1CC(CCl)c2ccc([N+](=O)[O-])cc21 (configuration not stated)
inactive: [1] > 100 µM | [2] > 100 µM | [3] > 100 µM | [4] > 100 µM | [5] > 100 µM | [6] > 100 µM | [7] > 100 µM | [8] > 100 µM | [9] > 100 µM | [10] 74.1 µM | [11] > 100 µM | [12] 95.9 µM | [14] > 100 µM | [15] > 100 µM | [16] > 100 µM

O=c1n(-c2ccccc2)c(=O)n2n1C1C=CC2CCCCCC1
inactive: [1] > 100 µM | [3] 97.3 µM | [4] > 100 µM | [5] > 100 µM | [6] > 100 µM | [7] > 100 µM | [8] > 100 µM | [9] > 100 µM | [10] 4.99 µM | [11] > 100 µM | [12] 60 µM | [17] > 100 µM | [14] > 100 µM | [15] > 100 µM | [16] > 100 µM

O=C1/C(=C/c2cccc([N+](=O)[O-])c2)CCCc2ccccc21
inactive: [1] 13.7 µM | [3] 12.5 µM | [4] 5.4 µM | [5] 14.4 µM | [6] 2.42 µM | [7] 13.8 µM | [8] 18.5 µM | [9] 9.51 µM | [10] 13.6 µM | [11] 13.3 µM | [12] 11.4 µM | [17] 2.86 µM | [14] 4.76 µM | [15] 15.7 µM | [16] 16.4 µM

— ChEMBL document CHEMBL1201862, “PubChem BioAssay data set” (2004)
